Tests used:
Assay type in all cases: cell-based
[1] = target: T1, human TLR7 (Homo sapiens, UniProt Q9NYK1); experiment: TLR7 inhibition reporter assay (HEK-Blue cells, SEAP reporter, gardiquimod stimulation); settings: HEK-Blue cells overexpressing human TLR7, SEAP reporter, gardiquimod 7.5 μM
T1 construct: host or cells: HEK-Blue cells (HEK293-derived reporter line)
T1 sequence (Q9NYK1 27-1049): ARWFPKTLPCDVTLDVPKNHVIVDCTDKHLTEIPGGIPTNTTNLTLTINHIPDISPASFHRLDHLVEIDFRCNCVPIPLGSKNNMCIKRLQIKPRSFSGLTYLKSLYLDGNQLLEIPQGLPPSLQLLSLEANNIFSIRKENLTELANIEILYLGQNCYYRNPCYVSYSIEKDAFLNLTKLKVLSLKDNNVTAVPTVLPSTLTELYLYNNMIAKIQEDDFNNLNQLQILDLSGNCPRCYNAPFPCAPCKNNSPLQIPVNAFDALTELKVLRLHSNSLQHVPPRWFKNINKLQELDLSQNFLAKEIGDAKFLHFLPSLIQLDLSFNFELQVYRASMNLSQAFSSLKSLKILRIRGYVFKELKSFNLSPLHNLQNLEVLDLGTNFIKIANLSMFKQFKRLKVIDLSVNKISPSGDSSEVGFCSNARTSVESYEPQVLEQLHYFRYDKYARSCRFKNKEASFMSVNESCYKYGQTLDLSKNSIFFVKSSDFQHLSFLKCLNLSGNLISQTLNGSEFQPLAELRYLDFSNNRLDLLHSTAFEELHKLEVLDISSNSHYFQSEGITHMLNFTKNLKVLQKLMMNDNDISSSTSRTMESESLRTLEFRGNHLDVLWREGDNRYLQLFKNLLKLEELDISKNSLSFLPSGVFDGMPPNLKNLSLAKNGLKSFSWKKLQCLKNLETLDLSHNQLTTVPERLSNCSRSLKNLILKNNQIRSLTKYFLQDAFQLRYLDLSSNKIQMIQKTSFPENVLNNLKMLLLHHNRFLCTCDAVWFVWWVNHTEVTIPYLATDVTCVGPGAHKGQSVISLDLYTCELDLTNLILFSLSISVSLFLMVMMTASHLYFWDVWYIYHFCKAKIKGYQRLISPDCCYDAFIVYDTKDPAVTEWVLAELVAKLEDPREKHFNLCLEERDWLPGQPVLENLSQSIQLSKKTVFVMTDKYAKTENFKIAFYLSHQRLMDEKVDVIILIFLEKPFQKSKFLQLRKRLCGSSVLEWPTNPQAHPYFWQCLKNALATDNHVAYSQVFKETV
Procedure, shortened: (§1)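 Read-out is SEAP activity in HEK-Blue detection medium after 22 h at 37 °C, converted to percent inhibition against agonist-plus-DMSO and reference-inhibitor controls. Cells saw compound (0.05 nM–50 μM, 30 min, room temperature) before gardiquimod 7.5 μM, R848 15.9 μM or ODN2006 5 nM for TLR7, TLR8 and TLR9, respectively.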

[2] = target: T2, human TLR8 (Homo sapiens, UniProt Q9NR97); experiment: TLR8 inhibition reporter assay (HEK-Blue cells, SEAP reporter, R848 stimulation); settings: HEK-Blue cells overexpressing human TLR8, SEAP reporter, R848 15.9 μM
T2 construct: host or cells: HEK-Blue cells (HEK293-derived reporter line)
T2 sequence (Q9NR97 27-1041): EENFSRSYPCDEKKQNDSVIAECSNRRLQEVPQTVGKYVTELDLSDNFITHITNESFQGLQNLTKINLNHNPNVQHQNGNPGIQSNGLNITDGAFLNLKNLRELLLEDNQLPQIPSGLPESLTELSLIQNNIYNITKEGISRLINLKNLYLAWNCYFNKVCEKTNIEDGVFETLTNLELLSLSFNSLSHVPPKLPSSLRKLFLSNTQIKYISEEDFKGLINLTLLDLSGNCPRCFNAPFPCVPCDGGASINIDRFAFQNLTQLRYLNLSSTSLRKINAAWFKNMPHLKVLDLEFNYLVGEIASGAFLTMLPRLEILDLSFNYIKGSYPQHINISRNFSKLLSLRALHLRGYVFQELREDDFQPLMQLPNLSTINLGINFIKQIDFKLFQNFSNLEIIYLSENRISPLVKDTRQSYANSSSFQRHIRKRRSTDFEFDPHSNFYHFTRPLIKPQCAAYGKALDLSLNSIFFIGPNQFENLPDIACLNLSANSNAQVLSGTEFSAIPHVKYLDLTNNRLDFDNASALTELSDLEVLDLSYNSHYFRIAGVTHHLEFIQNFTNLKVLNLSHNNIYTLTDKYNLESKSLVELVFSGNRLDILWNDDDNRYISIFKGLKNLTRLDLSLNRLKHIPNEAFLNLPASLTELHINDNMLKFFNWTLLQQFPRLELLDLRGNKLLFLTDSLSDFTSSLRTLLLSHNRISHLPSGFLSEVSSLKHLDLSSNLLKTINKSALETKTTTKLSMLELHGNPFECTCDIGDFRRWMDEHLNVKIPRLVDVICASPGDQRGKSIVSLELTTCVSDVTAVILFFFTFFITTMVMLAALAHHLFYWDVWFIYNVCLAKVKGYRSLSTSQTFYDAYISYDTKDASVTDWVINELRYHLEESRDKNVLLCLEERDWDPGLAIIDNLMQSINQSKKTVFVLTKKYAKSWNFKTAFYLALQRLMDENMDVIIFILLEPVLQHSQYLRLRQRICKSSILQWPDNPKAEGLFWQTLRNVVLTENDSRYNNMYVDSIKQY
Procedure, shortened: as §1

[3] = target: T3, human TLR9 (Homo sapiens, UniProt Q9NR96); experiment: TLR9 inhibition reporter assay (HEK-Blue cells, SEAP reporter, ODN2006 stimulation); settings: HEK-Blue cells overexpressing human TLR9, SEAP reporter, ODN2006 5 nM
T3 construct: host or cells: HEK-Blue cells (HEK293-derived reporter line)
T3 sequence (Q9NR96 26-1032): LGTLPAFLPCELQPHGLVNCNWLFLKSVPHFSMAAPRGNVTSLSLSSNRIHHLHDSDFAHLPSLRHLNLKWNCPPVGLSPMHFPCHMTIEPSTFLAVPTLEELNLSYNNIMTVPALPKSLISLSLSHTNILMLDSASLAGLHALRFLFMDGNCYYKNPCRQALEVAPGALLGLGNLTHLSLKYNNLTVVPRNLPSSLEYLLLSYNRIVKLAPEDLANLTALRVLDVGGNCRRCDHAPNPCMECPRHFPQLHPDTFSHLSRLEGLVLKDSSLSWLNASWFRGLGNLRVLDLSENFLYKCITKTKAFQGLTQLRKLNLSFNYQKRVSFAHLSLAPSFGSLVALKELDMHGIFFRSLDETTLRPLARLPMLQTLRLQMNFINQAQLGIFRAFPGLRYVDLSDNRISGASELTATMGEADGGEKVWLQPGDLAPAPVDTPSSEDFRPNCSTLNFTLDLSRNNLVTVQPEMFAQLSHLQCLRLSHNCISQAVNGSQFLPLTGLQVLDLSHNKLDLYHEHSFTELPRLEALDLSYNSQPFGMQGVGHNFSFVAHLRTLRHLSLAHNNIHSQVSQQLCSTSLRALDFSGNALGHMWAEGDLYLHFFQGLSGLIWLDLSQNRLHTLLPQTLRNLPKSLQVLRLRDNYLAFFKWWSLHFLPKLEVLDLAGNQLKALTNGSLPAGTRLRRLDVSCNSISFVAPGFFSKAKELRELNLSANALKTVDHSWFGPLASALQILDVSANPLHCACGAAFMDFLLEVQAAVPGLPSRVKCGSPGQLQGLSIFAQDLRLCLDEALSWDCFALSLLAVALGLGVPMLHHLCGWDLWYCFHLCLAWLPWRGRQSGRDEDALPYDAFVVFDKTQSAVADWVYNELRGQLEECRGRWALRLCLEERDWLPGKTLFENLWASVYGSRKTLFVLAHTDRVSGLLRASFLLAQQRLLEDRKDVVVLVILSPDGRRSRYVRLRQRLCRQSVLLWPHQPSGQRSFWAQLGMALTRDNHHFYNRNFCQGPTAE
Procedure, shortened: as §1

SMILES	IC50 [1] [nM]	IC50 [2] [nM]	IC50 [3] [nM]
Cc1ccnc2[nH]cc(-c3[nH]c4ccc(C5CCN(C(=O)CN(C)C)CC5)cc4c3C(C)C)c12 [Example 458, 2-(dimethylamino)-1-(4-(3-isopropyl-2-(4-methyl-1H-pyrrolo[2,3-b]pyridin-3-yl)-1H-indol-5-yl)piperidin-1-yl)ethan-1-one]	< 100	100 to 1000	1000 to 50000
Cc1nc2c(-c3[nH]c4ccc(C5CCNCC5)cc4c3C(C)C)cccn2n1 [Example 153, 8-(3-isopropyl-5-(piperidin-4-yl)-1H-indol-2-yl)-2-methyl-[1,2,4]triazolo[1,5-a]pyridine]	< 100	< 100	1000 to 50000
Cc1cc(-c2[nH]c3ccc(C4CCN(C(=O)CN(C)C)CC4)cc3c2C(C)C)cc2c1oc(=O)n2C [Example 489, 5-(5-(1-(dimethylglycyl)piperidin-4-yl)-3-isopropyl-1H-indol-2-yl)-3,7-dimethylbenzo[d]oxazol-2(3H)-one]	< 100	100 to 1000	1000 to 50000
CCc1c(-c2cnc3[nH]ncc3c2)[nH]c2ccc(C3CCNCC3)cc12 [Example 53, 5-(3-ethyl-5-(piperidin-4-yl)-1H-indol-2-yl)-1H-pyrazolo[3,4-b]pyridine]	100 to 1000	< 100	1000 to 50000
COc1cc(-c2[nH]c3ccc(C4CCNCC4)cc3c2C(C)C)nn2ncnc12 [Example 38, 6-(3-isopropyl-5-(piperidin-4-yl)-1H-indol-2-yl)-8-methoxy-[1,2,4]triazolo[1,5-b]pyridazine]	< 100	< 100	100 to 1000
CC(C)c1c(-c2ccnc3[nH]ncc23)[nH]c2ccc(C3CCN(C4CCNCC4C)CC3)cc12 (stereo not drawn) [Example 834, 4-(3-isopropyl-5-(3′-methyl-[1,4′-bipiperidin]-4-yl)-1H-indol-2-yl)-1H-pyrazolo[3,4-b]pyridine]	< 100	< 100	100 to 1000
Cc1cc(-c2[nH]c3ccc(C4CCN(C5CCOCC5)CC4)cc3c2C(C)C)cc2cncn12 [Example 707, 7-(3-isopropyl-5-(1-(tetrahydro-2H-pyran-4-yl)piperidin-4-yl)-1H-indol-2-yl)-5-methylimidazo[1,5-a]pyridine]	< 100	< 100	100 to 1000
Cc1c(C2CCNCC2)ccc2[nH]c(-c3ccnc4[nH]ncc34)c(C)c12 [Example 256, 4-(3,4-dimethyl-5-(piperidin-4-yl)-1H-indol-2-yl)-1H-pyrazolo[3,4-b]pyridine]	< 100	< 100	1000 to 50000
CC(C)c1c(-c2cnc3nccn3c2)[nH]c2ccc(C3CCN(CC(C)(C)O)CC3)cc12 [Example 761, 1-(4-(2-(imidazo[1,2-a]pyrimidin-6-yl)-3-isopropyl-1H-indol-5-yl)piperidin-1-yl)-2-methylpropan-2-ol]	< 100	100 to 1000	100 to 1000
Cc1c(-c2ccnc3cn[nH]c23)[nH]c2ccc(C3CCNCC3)cc12 [Example 55, 7-(3-methyl-5-(piperidin-4-yl)-1H-indol-2-yl)-1H-pyrazolo [4,3-b]pyridine]	100 to 1000	1000 to 50000	1000 to 50000
CC(C)c1c(-c2ccnc3[nH]ncc23)[nH]c2ccc(C3CCN(Cc4ccc(N5CCCC5)cc4)CC3)cc12 [Example 905, 4-(3-isopropyl-5-(1-(4-(pyrrolidin-1-yl)benzyl)piperidin-4-yl)-1H-indol-2-yl)-1H-5 pyrazolo[3,4-b]pyridine]	100 to 1000	< 100	1000 to 50000
Cc1nnn2ccc(-c3[nH]c4ccc(C5CCN(CC(N)=O)CC5)cc4c3C(C)C)cc12 [Example 317, 2-(4-(3-isopropyl-2-(3-methyl-[1,2,3]triazolo[1,5-a]pyridin-5-yl)-1H-indol-5-yl)piperidin-1-yl)acetamide]	< 100	< 100	1000 to 50000
CC(C)c1c(-c2ccnc3[nH]cnc23)[nH]c2ccc(C3CCNCC3)cc12 [Example 61, 7-(3-isopropyl-5-(piperidin-4-yl)-1H-indol-2-yl)-3H-imidazo[4,5-b]pyridine]	< 100	< 100	100 to 1000
CNC(=O)CN1CCC(c2ccc3[nH]c(-c4ccn5nccc5c4)c(C(C)C)c3c2)CC1 [Example 405, 2-(4-(3-isopropyl-2-(pyrazolo[1,5-a]pyridin-5-yl)-1H-indol-5-yl)piperidin-1-yl)-N-methylacetamide]	< 100	< 100	1000 to 50000
Cc1nc2cc(-c3[nH]c4ccc(C5CCN(C(=O)C[C@H](C)O)CC5)cc4c3C(C)C)ccn2n1 [Example 602, (S)-3-hydroxy-1-(4-(3-isopropyl-2-(2-methyl-[1,2,4]triazolo[1,5-a]pyridin-7-yl)-1H-indol-5-yl)piperidin-1-yl)butan-1-one]	< 100	> 3130	> 50000

— US11739098B2 (BRISTOL-MYERS SQUIBB COMPANY, priority 2017, dated 2023)
